Data from PubChem BioAssay AID256 (DTP/NCI, 2004).
Several values for one entry are separate records, joined by “and”; a condition that tells them apart may be missing. Identical values can stand only once. Toxic doses and inconclusive results are not listed. Rule for the calls: active = survival T/C of 150% or more; inactive = T/C below 125% in these data.

Test system: CD2F1 mice, L1210 leukemia ip, survival T/C
Experiment: NCI In Vivo Anticancer Drug Screen. Data for tumor model L1210 Leukemia (intraperitoneal) in CD2F1 (CDF1) mice
Details: higher = longer survival
Method in brief: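 Ratio T/C, where T is the treated-group value and C the vehicle-dosed control value, from mice implanted with a transplantable tumor.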

[1] = endpoint: mean survival time, dose: 100.0 mg/kg/injection, schedule: Q01DX009 (ip), vehicle: saline with Tween-80
[2] = endpoint: mean survival time, dose: 200.0 mg/kg/injection, schedule: Q01DX009 (ip), vehicle: saline with Tween-80
[3] = endpoint: mean survival time, dose: 400.0 mg/kg/injection, schedule: Q01DX009 (ip), vehicle: saline with Tween-80
[4] = endpoint: mean survival time, dose: 100.0 mg/kg/injection, schedule: Q04DX003 (ip), vehicle: saline with Tween-80
[5] = endpoint: mean survival time, dose: 200.0 mg/kg/injection, schedule: Q04DX003 (ip), vehicle: saline with Tween-80
[6] = endpoint: mean survival time, dose: 400.0 mg/kg/injection, schedule: Q04DX003 (ip), vehicle: saline with Tween-80
[7] = endpoint: mean survival time, dose: 12.5 mg/kg/injection, schedule: Q01DX009 (ip), vehicle: saline with Tween-80
[8] = endpoint: mean survival time, dose: 25.0 mg/kg/injection, schedule: Q01DX009 (ip), vehicle: saline with Tween-80
[9] = endpoint: mean survival time, dose: 50.0 mg/kg/injection, schedule: Q01DX009 (ip), vehicle: saline with Tween-80
[10] = endpoint: mean survival time, dose: 50.0 mg/kg/injection, schedule: Q04DX003 (ip), vehicle: saline with Tween-80
[11] = endpoint: mean survival time, dose: 100.0 mg/kg/injection, schedule: Q01DX001 (ip), vehicle: saline with Tween-80
[12] = endpoint: mean survival time, dose: 200.0 mg/kg/injection, schedule: Q01DX001 (ip), vehicle: saline with Tween-80
[13] = endpoint: mean survival time, dose: 400.0 mg/kg/injection, schedule: Q01DX001 (ip), vehicle: saline with Tween-80

Measured: T/C

[Cl][Pt+2][Cl].[NH-]Nc1nc2ccccc2s1.[NH-]Nc1nc2ccccc2s1
inactive: endpoint: mean survival time, dose: 5.0 mg/kg/injection, schedule: Q04DX003 (ip), vehicle: saline with Tween-80 102 % of control | endpoint: mean survival time, dose: 10.0 mg/kg/injection, schedule: Q04DX003 (ip), vehicle: saline with Tween-80 98 % of control | endpoint: mean survival time, dose: 20.0 mg/kg/injection, schedule: Q04DX003 (ip), vehicle: saline with Tween-80 94 % of control | endpoint: mean survival time, dose: 40.0 mg/kg/injection, schedule: Q04DX003 (ip), vehicle: saline with Tween-80 98 % of control | endpoint: mean survival time, dose: 80.0 mg/kg/injection, schedule: Q04DX003 (ip), vehicle: saline with Tween-80 94 % of control

CCOC(=O)c1ccc(-c2ccc(C(=O)OCC)o2)o1
inactive: endpoint: mean survival time, dose: 50.0 mg/kg/injection, schedule: Q04DX002 (ip), vehicle: saline 101 % of control | endpoint: mean survival time, dose: 100.0 mg/kg/injection, schedule: Q04DX002 (ip), vehicle: saline 93 % of control | endpoint: mean survival time, dose: 200.0 mg/kg/injection, schedule: Q04DX002 (ip), vehicle: saline 97 % of control

C=CCCCCCCCCC(=O)NCC1CC1
inactive: [1] 94 % of control | [2] 100 % of control | [3] 86 % of control

CC1SCCCS1
inactive: endpoint: mean survival time, dose: 12.5 mg/kg/injection, schedule: Q04DX003 (ip), vehicle: other 106 % of control | endpoint: mean survival time, dose: 25.0 mg/kg/injection, schedule: Q04DX003 (ip), vehicle: other 104 % of control | endpoint: mean survival time, dose: 50.0 mg/kg/injection, schedule: Q04DX003 (ip), vehicle: other 102 % of control | endpoint: mean survival time, dose: 100.0 mg/kg/injection, schedule: Q04DX003 (ip), vehicle: other 102 % of control | endpoint: mean survival time, dose: 200.0 mg/kg/injection, schedule: Q04DX003 (ip), vehicle: other 97 % of control

CNC(=S)NNc1ccccc1Cl
inactive: endpoint: mean survival time, dose: 12.5 mg/kg/injection, schedule: Q01DX009 (ip), vehicle: other 98 % of control | endpoint: mean survival time, dose: 25.0 mg/kg/injection, schedule: Q01DX009 (ip), vehicle: other 94 % of control | endpoint: mean survival time, dose: 50.0 mg/kg/injection, schedule: Q01DX009 (ip), vehicle: other 88 % of control | endpoint: mean survival time, dose: 100.0 mg/kg/injection, schedule: Q01DX009 (ip), vehicle: other 104 % of control | endpoint: mean survival time, dose: 200.0 mg/kg/injection, schedule: Q01DX009 (ip), vehicle: other 104 % of control

N#Cc1c(F)c(F)cc(F)c1F
inactive: [1] 100 % of control | [4] 96 % of control | [2] 96 % of control | [5] 96 % of control | [6] 93 % of control

CCCCCCCCCCCCNC1=CC(=O)c2nccnc2C1=O
inactive: endpoint: mean survival time, dose: 6.25 mg/kg/injection, schedule: Q01DX009 (ip), vehicle: saline with Tween-80 98 % of control | [7] 95 % of control | [8] 91 % of control | [9] 91 % of control | [1] 95 % of control

O=C(COc1ccccc1)NC(=S)Nc1ccc(Cl)c(Cl)c1
inactive: endpoint: mean survival time, dose: 25.0 mg/kg/injection, schedule: Q04DX002 (ip), vehicle: saline with Tween-80 97 % of control and 105 % of control | endpoint: mean survival time, dose: 50.0 mg/kg/injection, schedule: Q01DX001 (ip), vehicle: saline with Tween-80 101 % of control | [9] 98 % of control and 102 % of control | [10] 98 % of control | [11] 101 % of control | [1] 98 % of control and 106 % of control | [4] 96 % of control | [12] 95 % of control | [2] 93 % of control and 96 % of control | [5] 98 % of control

NCC1CCCC1N (stereo unspecified)
inactive: endpoint: mean survival time, dose: 18.8 mg/kg/injection, schedule: Q01DX001 (ip), vehicle: saline 114 % of control | endpoint: mean survival time, dose: 18.8 mg/kg/injection, schedule: Q04DX003 (ip), vehicle: saline 101 % of control | endpoint: mean survival time, dose: 37.5 mg/kg/injection, schedule: Q01DX001 (ip), vehicle: saline 108 % of control | endpoint: mean survival time, dose: 37.5 mg/kg/injection, schedule: Q04DX003 (ip), vehicle: saline 101 % of control | endpoint: mean survival time, dose: 75.0 mg/kg/injection, schedule: Q01DX001 (ip), vehicle: saline 103 % of control | endpoint: mean survival time, dose: 75.0 mg/kg/injection, schedule: Q04DX003 (ip), vehicle: saline 104 % of control

Cc1nc2nc(N)[nH]c(=O)c2nc1C
inactive: [11] 95 % of control | [12] 98 % of control | [13] 90 % of control

NC(=O)NC1CCCCCC1
inactive: [1] 102 % of control | [2] 109 % of control | [3] 100 % of control

OC(c1ccccc1)c1ccccc1
inactive: endpoint: mean survival time, dose: 100.0 mg/kg/injection, schedule: Q01DX009 (ip), vehicle: saline 91 % of control | endpoint: mean survival time, dose: 200.0 mg/kg/injection, schedule: Q01DX009 (ip), vehicle: saline 91 % of control | endpoint: mean survival time, dose: 400.0 mg/kg/injection, schedule: Q01DX009 (ip), vehicle: saline 91 % of control

CC(=O)CC(Br)CBr (stereo unspecified)
inactive: [4] 96 % of control

CCOC(=O)C(C=O)(CC)C(=O)OCC
inactive: [1] 97 % of control | [2] 94 % of control | [3] 103 % of control

O=c1[nH]cnc2c1ncn2C1OC(CO)C(O)C1O.O=c1[nH]cnc2c1ncn2C1OC(CO)C(O)C1O.[NH2-].[NH2-].[Pt+2] (stereo unspecified)
inactive: [7] 92 % of control | [8] 96 % of control | [9] 100 % of control | [1] 92 % of control | [2] 103 % of control

CC1Oc2cc3c(-c4c(O)cc(O)c5c(O)c6c(cc45)OC(C)C(C)C6=O)c(O)cc(O)c3c(O)c2C(=O)C1C (stereo unspecified)
inactive: endpoint: median survival time, dose: 5.0 mg/kg/injection, schedule: Q01DX009 (ip), vehicle: suspension in saline 87 % of control | endpoint: median survival time, dose: 10.0 mg/kg/injection, schedule: Q01DX009 (ip), vehicle: suspension in saline 91 % of control

CC(C)CC(NC(=O)c1ccccc1)C(N)=O (stereo unspecified)
inactive: [4] 101 % of control | [5] 97 % of control | [6] 92 % of control

CCOC(=O)C(NCc1ccccc1)C(=O)OCC
inactive: endpoint: mean survival time, dose: 12.5 mg/kg/injection, schedule: Q01DX009 (ip), vehicle: water 96 % of control | endpoint: mean survival time, dose: 25.0 mg/kg/injection, schedule: Q01DX009 (ip), vehicle: water 98 % of control | endpoint: mean survival time, dose: 50.0 mg/kg/injection, schedule: Q01DX009 (ip), vehicle: water 101 % of control | endpoint: mean survival time, dose: 100.0 mg/kg/injection, schedule: Q01DX009 (ip), vehicle: water 93 % of control

O=C1c2cscc2C(=O)c2c(Cl)sc(Cl)c21
inactive: endpoint: mean survival time, dose: 12.5 mg/kg/injection, schedule: Q04DX003 (ip), vehicle: saline with Tween-80 96 % of control | [8] 103 % of control | endpoint: mean survival time, dose: 25.0 mg/kg/injection, schedule: Q04DX003 (ip), vehicle: saline with Tween-80 98 % of control | [9] 97 % of control | [10] 90 % of control | [1] 91 % of control | [4] 100 % of control

O=c1[nH]cnc2c1ncn2C1OCC(O)C(O)C1O (stereo unspecified)
inactive: endpoint: mean survival time, dose: 100.0 mg/kg/injection, schedule: Q01DX001 (ip), vehicle: saline 102 % of control | endpoint: mean survival time, dose: 200.0 mg/kg/injection, schedule: Q01DX001 (ip), vehicle: saline 97 % of control | endpoint: mean survival time, dose: 400.0 mg/kg/injection, schedule: Q01DX001 (ip), vehicle: saline 103 % of control

N#CN=Nc1ccc(Cl)cc1
inactive: endpoint: mean survival time, dose: 9.5 mg/kg/injection, schedule: Q01DX001 (ip), vehicle: other 97 % of control | endpoint: mean survival time, dose: 19.0 mg/kg/injection, schedule: Q01DX001 (ip), vehicle: other 97 % of control | endpoint: mean survival time, dose: 38.0 mg/kg/injection, schedule: Q01DX001 (ip), vehicle: other 89 % of control

O=C(NC1CCCC2CCCCC21)c1ccccc1 (stereo unspecified)
inactive: [11] 90 % of control | [12] 88 % of control | [13] 90 % of control

O=C(C(=C(c1ccccc1)c1ccccc1)N1CCCCC1)c1ccccc1
inactive: endpoint: mean survival time, dose: 100.0 mg/kg/injection, schedule: Q04DX003 (ip), vehicle: Klucel (hydroxypropylcellulose) (HPC) 94 % of control | endpoint: mean survival time, dose: 200.0 mg/kg/injection, schedule: Q04DX003 (ip), vehicle: Klucel (hydroxypropylcellulose) (HPC) 96 % of control | endpoint: mean survival time, dose: 400.0 mg/kg/injection, schedule: Q04DX003 (ip), vehicle: Klucel (hydroxypropylcellulose) (HPC) 94 % of control

C[N+]1(CCC(c2ccccc2)c2ccccc2)CCCCC1
inactive: endpoint: mean survival time, dose: 12.5 mg/kg/injection, schedule: Q04DX003 (ip), vehicle: saline 96 % of control | endpoint: mean survival time, dose: 25.0 mg/kg/injection, schedule: Q04DX003 (ip), vehicle: saline 104 % of control | endpoint: mean survival time, dose: 50.0 mg/kg/injection, schedule: Q04DX003 (ip), vehicle: saline 102 % of control
